This is an account of results in patent US20240327463A1, “ANTIBACTERIAL PRODUCTS” (priority 2017, published 2024).

In one experiment the test system is VRE ATCC 700802. The experiment is described as follows: microbe, parasite or virus in culture. The settings on record: ATCC 700802. On the procedure:
(§1) For MIC testing all peptides were dissolved in DMSO (according to the method of L. L. Ling, et al., Nature 2015, 517, 455-459). Bacteria were grown on Mueller Hinton broth (oxoid). All incubations were at 37° C. Dilutions were carried out using Mueller Hinton. 100 μl of autoclaved Mueller Hinton broth was added to wells 2-12 on a 96-well plate. 200 μl of the peptide was added to well one at a concentration of 512 μg/ml. 100 μl of peptide in well one was taken up and pipetted into well two. The mixture was then mixed via pipetting before 100 μl was taken up and pipetted into well three. This process was repeated up to well 11. […] This was repeated three times. The 96-well plates were then incubated for 24 hours. The MIC was determined to be the lowest concentration at which there was no growth visible.

A further experiment relates to VRE ATCC 29212. The experiment is described as follows: microbe, parasite or virus in culture. The settings on record: ATCC 29212. On the procedure: as §1
A further experiment concerns MRSA ATCC 700699. The experiment is described as follows: microbe, parasite or virus in culture. The settings on record: ATCC 700699. On the procedure:
as §1

In a further experiment the test system is MRSA DR 42412 (sputum). The experiment is described as follows: microbe, parasite or virus in culture. The settings on record: DR 42412 (sputum). On the procedure:
as §1

Another experiment has as its system MRSA DM21455 (eye). The experiment is described as follows: microbe, parasite or virus in culture. The settings on record: DM21455 (eye). On the procedure:
as §1

The next experiment deals with VRE 1008. It is filed as cell-based, Enterococcus faecalis. On the procedure: (§2) Bacteria were grown on Mueller Hinton broth (oxoid). All incubations were at 37° C. Dilutions were carried out using Mueller Hinton. […] This process was repeated up to well 11. […] This was repeated three times. […] Results are tabulated in the Examples.
The next experiment concerns VRE 1004. It counts as cell-based, Enterococcus faecalis. On the procedure: as §2
In the next experiment the test system is VRE 1001. It counts as cell-based, Enterococcus faecalis. On the procedure:
as §2

A further experiment deals with VRE 1002. It is filed as cell-based, Enterococcus faecalis. On the procedure:
as §2

The test system of the next experiment is MRSA ATCC 33591. The settings on record: ATCC 33591. On the procedure:
as §1

The subject of the next experiment is MRSA 1003. It counts as cell-based, Staphylococcus aureus. On the procedure: as §2
In experiment [1] the test system is Staphylococcus saprophyticus ATCC 49453. It is filed as cell-based. To be noted: ATCC 49453. On the procedure:
as §2

In experiment [2] the test system is Staphylococcus saprophyticus ATCC 15305. It is filed as cell-based. To be noted: ATCC 15305. On the procedure: as §2
The next experiment concerns SE12228. It counts as cell-based. On the procedure: as §2
For experiment [3], the system named is Staphylococcus saprophyticus ATCC 49907. It counts as cell-based. The settings on record: ATCC 49907. On the procedure:
as §2

The subject of experiment [4] is Bacillus Subtilis ATCC 6633. It counts as cell-based. On the procedure: as §2
The test system of experiment [5] is Staphylococcus saprophyticus ATCC BAA 750. It is filed as cell-based. To be noted: ATCC BAA 750. On the procedure:
as §2

Experiment [6] relates to Bacillus Cereus ATCC 11788. It counts as cell-based. On the procedure:
as §2

For experiment [7], the system named is Staphylococcus aureus ATCC 29213. The experiment is described as follows: microbe, parasite or virus in culture. To be noted: ATCC 29213. On the procedure:
as §1

Each structure is given as a SMILES string. ≈ marks a conversion by molar mass, not a printed value. Bridge positions count the residues as written; N and C are the ends. Square brackets hold non-standard residues; d marks the D form. Peptide text beside a SMILES is read from it. ξ: configuration not given here. dNMeF = CN[C@H](Cc1ccccc1)C(=O)O; Ile(3ξ) = CCC(C)[C@H](N)C(=O)O; Nva = CCC[C@H](N)C(=O)O Where only a bound is given, the exact number is not on record here.

Regarding `CCCCCCCCCC(=O)N[C@@H](Cc1c[nH]c2ccccc12)C(=O)N[C@H](CC(N)=O)C(=O)N[C@@H](CC(=O)O)C(=O)N[C@@H]1C(=O)NCC(=O)N[C@@H](CCCN)C(=O)N[C@@H](CC(=O)O)C(=O)N[C@H](C)C(=O)N[C@@H](CC(=O)O)C(=O)NCC(=O)N[C@H](CO)C(=O)N[C@@H]([C@H](C)CC(=O)O)C(=O)N[C@@H](CC(=O)c2ccccc2N)C(=O)O[C@@H]1C` [Daptomycin, reference compound], the MIC in the experiment on VRE ATCC 700802 is 0.25 µg/mL (≈ 0.154 µM); against VRE ATCC 29212, 0.25 µg/mL (≈ 0.154 µM); against MRSA ATCC 700699, 0.25 µg/mL (≈ 0.154 µM); in the experiment with MRSA DR 42412 (sputum) it was less than 0.0625 µg/mL; with MRSA DM21455 (eye), less than 0.0625 µg/mL.
As for `CCC(C)[C@@H]1NC(=O)[C@H](C)NC(=O)[C@H](NC(=O)[C@H](CO)NC(=O)[C@@H](NC(=O)[C@H](NC(=O)[C@@H](CCC(N)=O)NC(=O)[C@H](CCCNC(=N)N)NC(=O)[C@@H](NC(=O)[C@@H](Cc2ccccc2)NC)[C@@H](C)CC)[C@H](C)CC)[C@@H](C)CC)[C@H](C)OC(=O)[C@H]([C@@H](C)CC)NC1=O` (stereo partly drawn) [Compound 32, Arg3-Ile10-teixobactin] (H-[dNMeF]IR[dQ][dI]IS[dT]A[Ile(3ξ)]I; ester 8-C), the MIC against VRE 1008 was 1 µg/mL (≈ 0.787 µM); against VRE 1004 it was 1 µg/mL (≈ 0.787 µM); with VRE 1001 it was 1 µg/mL (≈ 0.787 µM); with VRE 1002 it was 1 µg/mL (≈ 0.787 µM); against MRSA 1003, 0.125 µg/mL (≈ 0.0984 µM); in experiment [1], less than 0.0625 µg/mL. Besides, the MIC was less than 0.0625 µg/mL in [2]; less than 0.0625 µg/mL in the experiment with SE12228; less than 0.0625 µg/mL in [3]; less than 0.0625 µg/mL in experiment [4]; less than 0.0625 µg/mL in experiment [5]; 0.125 µg/mL (≈ 0.0984 µM) in [6]. In addition, the MIC against VRE ATCC 700802 came to 1 µg/mL (≈ 0.787 µM); in experiment [7] it was 0.5 µg/mL (≈ 0.394 µM); in the experiment on VRE ATCC 29212, 1 µg/mL (≈ 0.787 µM); in the experiment on MRSA ATCC 700699, 1 µg/mL (≈ 0.787 µM); in the experiment with MRSA DR 42412 (sputum), 0.125 µg/mL (≈ 0.0984 µM); in the experiment on MRSA DM21455 (eye), 0.25 µg/mL (≈ 0.197 µM). For the same molecule, the “MIC (MRSA)” value against MRSA ATCC 33591 is 0.25 µg/mL (≈ 0.197 µM).
`CC[C@@H](C)[C@@H](NC(=O)[C@@H](CCC(N)=O)NC(=O)[C@H](CCCNC(=N)N)NC(=O)[C@@H](NC(=O)[C@@H](Cc1ccccc1)NC)[C@@H](C)CC)C(=O)N[C@H](C(=O)N[C@@H](CO)C(=O)N[C@H]1C(=O)N[C@@H](C)C(=O)N[C@@H](CC(C)C)C(=O)N[C@@H]([C@@H](C)CC)C(=O)O[C@H]1C)[C@@H](C)CC` [Compound 25, Arg3-Leu10-teixobactin] (H-[dNMeF]IR[dQ][dI]IS[dT]ALI; ester 8-C): the MIC is 0.125 µg/mL (≈ 0.0984 µM) against VRE 1008; less than 0.0625 µg/mL against VRE 1004; 0.25 µg/mL (≈ 0.197 µM) against VRE 1001; 0.5 µg/mL (≈ 0.394 µM) with VRE 1002; less than 0.0625 µg/mL against MRSA 1003; less than 0.0625 µg/mL in [1]. The MIC (in [2]; in the experiment with SE12228; in [3]; in experiment [4]; in [5]; in experiment [6]) was less than 0.0625 µg/mL in each case. For the same molecule, the MIC against VRE ATCC 700802 was 0.5 µg/mL (≈ 0.394 µM); in experiment [7], 0.25 µg/mL (≈ 0.197 µM); against VRE ATCC 29212, 0.5 µg/mL (≈ 0.394 µM); against MRSA ATCC 700699 it was 0.5 µg/mL (≈ 0.394 µM); with MRSA DR 42412 (sputum), less than 0.0625 µg/mL; in the experiment on MRSA DM21455 (eye), 0.03125 µg/mL (≈ 0.0246 µM). The “MIC (MRSA)” value with MRSA ATCC 33591 worked out at 0.125 µg/mL (≈ 0.0984 µM).
With `CC[C@@H](C)[C@@H](NC(=O)[C@@H](CCC(N)=O)NC(=O)[C@H](CCCNC(=N)N)NC(=O)[C@@H](NC(=O)[C@@H](Cc1ccccc1)NC)[C@@H](C)CC)C(=O)N[C@H](C(=O)N[C@@H](CO)C(=O)N[C@H]1C(=O)N[C@@H](C)C(=O)N[C@@H](C2CCCCC2)C(=O)N[C@@H]([C@@H](C)CC)C(=O)O[C@H]1C)[C@@H](C)CC` [Compound 37, Arg3-Chg10-teixobactin], the “MIC (MRSA)” value against MRSA ATCC 33591 turned out to be 0.5 µg/mL (≈ 0.386 µM).
For `CC[C@@H](C)[C@@H](NC(=O)[C@@H](CCC(N)=O)NC(=O)[C@H](CO)NC(=O)[C@H](C)NC(=O)[C@@H](Cc1ccccc1)NC)C(=O)N[C@H](C(=O)N[C@@H](CO)C(=O)N[C@H]1C(=O)N[C@@H](C)C(=O)N[C@@H](CCCNC(=N)N)C(=O)N[C@@H]([C@@H](C)CC)C(=O)O[C@H]1C)[C@@H](C)CC` [Compound 8] (H-[dNMeF]AS[dQ][dI]IS[dT]ARI; ester 8-C), the “MIC (MRSA*)” value in the experiment with MRSA ATCC 33591 was greater than 128 µg/mL.
Same read-out and setting: the figure for `CC[C@@H](C)[C@@H](NC(=O)[C@@H](CCC(N)=O)NC(=O)[C@H](CO)NC(=O)[C@@H](NC(=O)[C@@H](Cc1ccccc1)NC)[C@@H](C)CC)C(=O)N[C@@H](C)C(=O)N[C@@H](CO)C(=O)N[C@H]1C(=O)N[C@@H](C)C(=O)N[C@@H](CCCNC(=N)N)C(=O)N[C@@H]([C@@H](C)CC)C(=O)O[C@H]1C` [Compound 12] (H-[dNMeF]IS[dQ][dI]AS[dT]ARI; ester 8-C) is greater than 128 µg/mL.
With `CC[C@@H](C)[C@@H](NC(=O)[C@@H](CCCNC(=N)N)NC(=O)[C@H](CO)NC(=O)[C@@H](NC(=O)[C@@H](Cc1ccccc1)NC)[C@@H](C)CC)C(=O)N[C@H](C(=O)N[C@@H](CO)C(=O)N[C@H]1C(=O)N[C@@H](C)C(=O)N[C@@H](C2CCCCC2)C(=O)N[C@@H]([C@@H](C)CC)C(=O)O[C@H]1C)[C@@H](C)CC` [Compound 38, D-Arg4-Chg10-teixobactin], in the experiment on MRSA ATCC 33591, the “MIC (MRSA)” value came to 0.5 µg/mL (≈ 0.398 µM).
As to `CCC[C@@H]1NC(=O)[C@H](CCCNC(=N)N)NC(=O)[C@H](NC(=O)[C@H](CO)NC(=O)[C@@H](NC(=O)[C@H](NC(=O)[C@@H](CCCNC(=N)N)NC(=O)[C@H](CCCNC(=N)N)NC(=O)[C@@H](NC(=O)[C@@H](Cc2ccccc2)NC)[C@@H](C)CC)[C@H](C)CC)[C@@H](C)CC)[C@H](C)OC(=O)[C@H]([C@@H](C)CC)NC1=O` [Compound 51, Arg3-D-Arg4-Arg9-Nva10-teixobactin] (H-[dNMeF]IR[dR][dI]IS[dT]R[Nva]I; ester 8-C), in the experiment on MRSA ATCC 33591, the “MIC (MRSA)” value came to 64 µg/mL (≈ 46.7 µM).
As for `CC[C@@H](C)[C@@H](NC(=O)[C@@H](CCC(N)=O)NC(=O)[C@H](CO)NC(=O)[C@@H](NC(=O)[C@@H](Cc1ccccc1)NC)[C@@H](C)CC)C(=O)N[C@H](C(=O)N[C@@H](CO)C(=O)N[C@H]1C(=O)N[C@@H](C)C(=O)NCC(=O)N[C@@H]([C@@H](C)CC)C(=O)O[C@H]1C)[C@@H](C)CC` [Compound 16, Gly10-teixobactin], the “MIC (MRSA*)” value against MRSA ATCC 33591 amounted to 2 µg/mL (≈ 1.75 µM).
As for `CC[C@@H](C)[C@@H](NC(=O)[C@@H](CCC(N)=O)NC(=O)[C@H](CO)NC(=O)[C@@H](NC(=O)[C@@H](Cc1ccccc1)NC)[C@@H](C)CC)C(=O)N[C@H](C(=O)N[C@@H](CO)C(=O)N[C@H]1C(=O)N[C@@H](CCCNC(=N)N)C(=O)N[C@@H](C2CCCCC2)C(=O)N[C@@H]([C@@H](C)CC)C(=O)O[C@H]1C)[C@@H](C)CC` [Compound 39, Arg9-Chg10-teixobactin], the “MIC (MRSA)” value against MRSA ATCC 33591 amounted to 1 µg/mL (≈ 0.762 µM).
Same read-out and setting: the same measure for `CCC[C@@H]1NC(=O)[C@H](CCCNC(=N)N)NC(=O)[C@H](NC(=O)[C@H](CO)NC(=O)[C@@H](NC(=O)[C@H](NC(=O)[C@@H](CCCNC(=N)N)NC(=O)[C@H](CO)NC(=O)[C@@H](NC(=O)[C@@H](Cc2ccccc2)NC)[C@@H](C)CC)[C@H](C)CC)[C@@H](C)CC)[C@H](C)OC(=O)[C@H]([C@@H](C)CC)NC1=O` [Compound 50, D-Arg4-Arg9-Nva10-teixobactin] (H-[dNMeF]IS[dR][dI]IS[dT]R[Nva]I; ester 8-C): 0.5 µg/mL (≈ 0.384 µM).
